Earlier results in PubChem BioAssay AID1259410 (Chemical Carcinogenesis Research Information System (CCRIS), 2018).

Test system: rodent tumor promotion studies, tumor incidence
Experiment: CCRIS tumor promotion studies
Conditions: Route [Promoter]: DERMAL, Species: MOUSE

## CCCCCCCCCCCCCC(=O)O[C@@H]1[C@@H](C)[C@@]2(O)[C@@H](C=C(CO)C[C@]3(O)C(=O)C(C)=C[C@@H]23)[C@@H]2C(C)(C)[C@]12OC(C)=O
Carcinogen: DIBENZO[A,L]PYRENE, 191-30-0, Doses [Carcinogen]: 0.25, 1 NMOL IN 100 µL ACETONE, Doses [Promoter]: 2.16 NMOL IN 100 µL ACETONE 2/WK FOR 27 WK BEGINNING 1 WK POST CARCINOGEN DOSE (STUDY DURATION: 28 WK), Route [Carcinogen]: DERMAL, Strain/Sex: SENCAR/FEMALE
  outcome: skin: tumor
Carcinogen: DIBENZO[A,L]PYRENE, 191-30-0, Doses [Carcinogen]: 1.33, 4, 12 NMOL IN 100 ML ACETONE ONCE, Doses [Carcinogen]: 1.33, 4, 12 NMOL IN 100 ML ACETONE ONCE, Doses [Promoter]: 1.62 NMOL IN 100 ML ACETONE 2/WK FOR 28 WK BEGINNING 1 WK POST CARCINOGEN DOSE (STUDY DURATION: 30 WK), Route [Carcinogen]: DERMAL, Strain/Sex: SENCAR/FEMALE
  outcome: skin: tumor
Carcinogen: DIBENZO[A,L]PYRENE, 191-30-0, Doses [Carcinogen]: 4, 20, 100 NMOL IN 100 µL ACETONE ONCE, Doses [Carcinogen]: 4, 20, 100 NMOL IN 100 µL ACETONE ONCE, Doses [Promoter]: 3.24 NMOL/100 µL ACETONE 2/WK BEGINNING 2 WK POST CARCINOGEN DOSE AND CONTINUING FOR 24 WK (STUDY DURATION: 27 WK), Route [Carcinogen]: DERMAL, Strain/Sex: SENCAR/FEMALE
  outcome: skin: tumor
Carcinogen: DIBENZO[A,L]PYRENE, 191-30-0, Doses [Carcinogen]: 33.3, 100, 300 NMOL IN 100 µL ACETONE ONCE, Doses [Carcinogen]: 33.3, 100, 300 NMOL IN 100 µL ACETONE ONCE, Doses [Promoter]: 3.24 NMOL/100 µL ACETONE ONCE 1 WK POST CARCINOGEN DOSE THEN 2/WK BEGINNING 3 WK LATER AND CONTINUING FOR 11 WK (STUDY D, Route [Carcinogen]: DERMAL, Strain/Sex: SENCAR/FEMALE
  outcome: skin: tumor
Carcinogen: DIMETHYLBENZ[A]ANTHRACENE, 57-97-6, Doses [Carcinogen]: 0.2 UMOL IN O.2 ML ACETONE ONCE, Doses [Promoter]: 0, 5 UG IN 0.2 ML ACETONE 3/WK ADMINISTERED 7 D POST CARCINOGEN DOSE AND CONTINUING FOR DURATION OF STUDY (STUDY DURATIO, Route [Carcinogen]: DERMAL, Strain/Sex: SWISS/FEMALE
  outcome: skin: tumor, squamous cell papilloma, keratoacanthoma
Carcinogen: N-METHYL-N'-NITRO-N-NITROSOGUANIDINE, 70-25-7, Doses [Carcinogen]: 4 UMOL IN 200 µL ACETONE ONCE, Doses [Promoter]: 0, 10 NMOL IN 200 µL ACETONE 2/WK FOR 52 WK BEGINNING 2 WK POST CARCINOGEN DOSE (STUDY DURATION: 52 WK), Route [Carcinogen]: DERMAL, Strain/Sex: C3H/CB/S/GEN/FEMALE
  outcome: skin: tumor
Carcinogen: N-METHYL-N'-NITRO-N-NITROSOGUANIDINE; 70-25-7; Doses [Carcinogen]: 4 UMOL IN 200 µL ACETONE ONCE; Doses [Promoter]: 0; 10 NMOL IN 200 µL ACETONE 2/WK FOR 52 WK BEGINNING 2 WK POST CARCINOGEN DOSE STUDY DURATION: 52 WK), Route [Carcinogen]: DERMAL, Strain/Sex: C3H/FEMALE
  outcome: skin: tumor
Carcinogen: PHENOXYOXIRANE, 79526-11-7, Doses [Carcinogen]: 5 UMOL IN 0.2 ML 15% DMSO IN ACETONE ONCE, Doses [Promoter]: 0, 15 NMOL IN 0.1 ML ACETONE ONCE 18-24 HR PRIOR TO CARCINOGEN DOSE THEN BEGINNING 1 WK LATER 2/WK FOR DURATION OF STUDY, Route [Carcinogen]: DERMAL, Strain/Sex: ICR/FEMALE
  outcome: skin: papilloma
Carcinogen: PHENYL VINYL ETHER, 766-94-9, Doses [Carcinogen]: 5 UMOL IN 0.2 ML 15% DMSO IN ACETONE ONCE, Doses [Promoter]: 0, 15 NMOL IN 0.1 ML ACETONE ONCE 18-24 HR PRIOR TO CARCINOGEN DOSE THEN BEGINNING 1 WK LATER 2/WK FOR DURATION OF STUDY, Route [Carcinogen]: DERMAL, Strain/Sex: ICR/FEMALE
  outcome: skin: papilloma
Carcinogen: SYN-1,2-DIHYDROXY-3,4-EPOXY-1,2,3,4-TETRAHYDRO-5,6-DIMETHYLCHRYSENE, 139562-15-5, Doses [Carcinogen]: 100 NMOL IN 0.1 ML ACETONE ONCE, Doses [Promoter]: 0, 2.5 UG IN 0.1 ML ACETONE 3/WK FOR 20 WK BEGINNING 10 D POST CARCINOGEN DOSE (STUDY DURATION: 20 WK), Route [Carcinogen]: DERMAL, Strain/Sex: CD-1/FEMALE
  outcome: skin: tumor
Carcinogen: THIRAM, 137-26-8, Doses [Carcinogen]: 100 MG/KG BW 3/WK FOR 3 WK, Doses [Promoter]: 0, 5 UG IN 100 µL ACETONE 3/WK FOR 51 WK BEGINNING 1 WK POST CARCINOGEN TREATMENT (STUDY DURATION: 54 WK), Route [Carcinogen]: DERMAL, Strain/Sex: SWISS/FEMALE
  outcome: skin: tumor
Carcinogen: THIRAM, 137-26-8, Doses [Carcinogen]: 100 MG/KG BW IN 100 µL DMSO ONCE, Doses [Promoter]: 5 UG IN 100 µL ACETONE 3/WK BEGINNING 1 WK POST CARCINOGEN DOSE (STUDY DURATION: 52 WK), Route [Carcinogen]: DERMAL, Strain/Sex: SWISS/MALE
  outcome: skin: tumor
Carcinogen: THIRAM, 137-26-8, Doses [Carcinogen]: 100 MG/KG BW IN 100 µL DMSO ONCE, Doses [Promoter]: 5 UG IN 100 µL ACETONE 3/WK FOR 3 WK BEGINNING 1 WK POST CARCINOGEN DOSE (STUDY DURATION: 52 WK), Route [Carcinogen]: DERMAL, Strain/Sex: SWISS/FEMALE
  outcome: skin: tumor
Carcinogen: THIRAM, 137-26-8, Doses [Carcinogen]: 100 MG/KG BW IN 100 µL DMSO ONCE, Doses [Promoter]: 5 UG IN 100 µL ACETONE 3/WK FOR 51 WK BEGINNING 1 WK POST CARCINOGEN DOSE (STUDY DURATION: 52 WK), Route [Carcinogen]: DERMAL, Strain/Sex: SWISS/MALE
  outcome: skin: tumor
Carcinogen: TRANS-4,5-DIHYDROBENZO[J]FLUORANTHENE-4,5-DIOL, 106542-80-7, Doses [Carcinogen]: 0, 1, 3 UMOL (TOTAL DOSE) IN ACETONE SOLUTION 1/2 D FOR 10 DOSES, Doses [Carcinogen]: 0, 1, 3 UMOL (TOTAL DOSE) IN ACETONE SOLUTION 1/2 D FOR 10 DOSES, Doses [Promoter]: 2.5 UG IN ACETONE 3/WK BEGINNING 10 D POST LAST CARCINOGEN DOSE AND CONTINUING FOR 20 WK (STUDY DURATION: 23 WK), Route [Carcinogen]: DERMAL, Strain/Sex: CD-1/FEMALE
  outcome: skin: tumors
Carcinogen: TRANS-9,10-DIHYDRO-5,9,10-TRIHYDROXYBENZO[B]FLUORANTHENE, 114451-04-6, Doses [Carcinogen]: 0, 0.04, 0.12, 0.4 UMOL (TOTAL DOSE) APPLIED IN SUBDOSES 1/2 D FOR 5 WK, Doses [Carcinogen]: 0, 0.04, 0.12, 0.4 UMOL (TOTAL DOSE) APPLIED IN SUBDOSES 1/2 D FOR 5 WK, Doses [Promoter]: 2.5 UG IN 100 µL ACETONE 3/WK FOR 20 WK BEGINNING 10 D POST LAST CARCINOGEN DOSE (STUDY DURATION: 26 WK), Route [Carcinogen]: DERMAL, Strain/Sex: CD-1/FEMALE
  outcome: skin: tumor
Carcinogen: TRANS-9,10-DIHYDRO-6,9,10-TRIHYDROXYBENZO[B]FLUORANTHENE, 114451-05-7, Doses [Carcinogen]: 0, 0.4 UMOL (TOTAL DOSE) APPLIED IN SUBDOSES 1/2 D FOR 5 WK, Doses [Promoter]: 2.5 UG IN 100 µL ACETONE 3/WK FOR 20 WK BEGINNING 10 D POST LAST CARCINOGEN DOSE (STUDY DURATION: 26 WK), Route [Carcinogen]: DERMAL, Strain/Sex: CD-1/FEMALE
  outcome: skin: tumor
Carcinogen: TRANS-9,10-DIHYDROBENZO[J]FLUORANTHENE-9,10-DIOL, 76479-14-6, Doses [Carcinogen]: 0, 3 UMOL (TOTAL DOSE) IN ACETONE SOLUTION 1/2 D FOR 10 DOSES, Doses [Promoter]: 2.5 UG IN ACETONE 3/WK BEGINNING 10 D POST LAST CARCINOGEN DOSE AND CONTINUING FOR 20 WK (STUDY DURATION: 23 WK), Route [Carcinogen]: DERMAL, Strain/Sex: CD-1/FEMALE
  outcome: skin: tumors
Carcinogen: VINYL CARBAMATE EPOXIDE, 82617-23-0, Doses [Carcinogen]: 0, 5.8, 11.5 UMOL IN 0.2 ML 15% DMSO 1/WK FOR 5 WK, Doses [Carcinogen]: 0, 5.8, 11.5 UMOL IN 0.2 ML 15% DMSO 1/WK FOR 5 WK, Doses [Promoter]: 0, 2.5 UG IN 0.1 ML ACETONE 18-24 HR PRIOR TO EACH CARCINOGEN DOSE THEN 2/WK FOR DURATION OF STUDY (STUDY DURATION: 22 W, Route [Carcinogen]: DERMAL, Strain/Sex: CD-1/FEMALE
  outcome: skin: papilloma
Carcinogen: VINYL CARBAMATE EPOXIDE, 82617-23-0, Doses [Carcinogen]: 1.5, 11.5 UMOL IN 0.2 ML 15% DMSO ONCE, Doses [Promoter]: 0, 2.5 UG IN 0.1 ML ACETONE 18-24 HR PRIOR TO CARCINOGEN DOSE THEN 2/WK FOR DURATION OF STUDY (STUDY DURATION: 22 WK), Route [Carcinogen]: DERMAL, Strain/Sex: CD-1/FEMALE
  outcome: skin: papilloma
Carcinogen: VINYL CARBAMATE, 15805-73-9, Doses [Carcinogen]: 0, 5.8, 11.5 UMOL IN 0.2 ML 15% DMSO 1/WK FOR 5 WK, Doses [Carcinogen]: 0, 5.8, 11.5 UMOL IN 0.2 ML 15% DMSO 1/WK FOR 5 WK, Doses [Promoter]: 0, 2.5 UG IN 0.1 ML ACETONE 18-24 HR PRIOR TO EACH CARCINOGEN DOSE THEN 2/WK FOR DURATION OF STUDY (STUDY DURATION: 22 W, Route [Carcinogen]: DERMAL, Strain/Sex: CD-1/FEMALE
  outcome: skin: papilloma
Carcinogen: VINYL CARBAMATE, 15805-73-9, Doses [Carcinogen]: 1.15, 11.5 UMOL IN 0.2 ML 15% DMSO ONCE, Doses [Promoter]: 0, 2.5 UG IN 0.1 ML ACETONE 18-24 HR PRIOR TO CARCINOGEN DOSE THEN 2/WK FOR DURATION OF STUDY (STUDY DURATION: 22 WK), Route [Carcinogen]: DERMAL, Strain/Sex: CD-1/FEMALE
  outcome: skin: papilloma
Carcinogen: X-RAY, Doses [Carcinogen]: 4.2 GY TO MALE MICE OF THE PARENT GENERATION, Doses [Promoter]: 0, 6.15 UG IN 0.1 ML ACETONE 2/WK FOR 24 WK ADMINISTERED TO F1 OFFSPRING OF IRRADIATED MALES BEGINNING AT 4 MO OF AGE (S, Route [Carcinogen]: WHOLE-BODY IRRADIATION, Strain/Sex: SHR/FEMALE
  outcome: skin: tumor
Carcinogen: X-RAY, Doses [Carcinogen]: 4.2 GY TO MALE MICE OF THE PARENT GENERATION, Doses [Promoter]: 0, 6.15 UG IN 0.1 ML ACETONE 2/WK FOR 24 WK ADMINISTERED TO F1 OFFSPRING OF IRRADIATED MALES BEGINNING AT 4 MO OF AGE (S, Route [Carcinogen]: WHOLE-BODY IRRADIATION, Strain/Sex: SHR/MALE
  outcome: skin: tumor
Carcinogen: X-RAY, Doses [Carcinogen]: 4.2 GY TO MALE MICE OF THE PARENT GENERATION, Doses [Promoter]: 0, 6.15 UG IN 0.1 ML ACETONE 2/WK FOR 24 WK ADMINISTERED TO F2 GENERATION OF IRRADIATED MALES BEGINNING AT 4 MO OF AGE (, Route [Carcinogen]: WHOLE-BODY IRRADIATION, Strain/Sex: SHR/FEMALE
  outcome: skin: tumor
Carcinogen: X-RAY, Doses [Carcinogen]: 4.2 GY TO MALE MICE OF THE PARENT GENERATION, Doses [Promoter]: 0, 6.15 UG IN 0.1 ML ACETONE 2/WK FOR 24 WK ADMINISTERED TO F2 GENERATION OF IRRADIATED MALES BEGINNING AT 4 MO OF AGE (, Route [Carcinogen]: WHOLE-BODY IRRADIATION, Strain/Sex: SHR/MALE
  outcome: skin: tumor
